According to DBAASP:
Values after ≈ are worked out from the molar mass of the structure shown.

Tests used:
Assay in all cases: ≥ marks a high value that may be exact or a test limit, other limits are often not marked, values filed in µg/mL are converted to µM
[1] = test system: Candida albicans ATCC 20032
[2] = test system: Staphylococcus aureus ATCC 25923
[3] = test system: Batrachochytrium dendrobatidis
[4] = test system: Escherichia coli ATCC 25922
[5] = test system: Staphylococcus aureus NCTC 8325
Bacillus cereus = test system: Bacillus cereus
Escherichia coli = test system: Escherichia coli
Leuconostoc lactis = test system: Leuconostoc lactis
Listeria innocua = test system: Listeria innocua
Micrococcus luteus = test system: Micrococcus luteus
Pasteurella multocida = test system: Pasteurella multocida
Staphylococcus aureus = test system: Staphylococcus aureus
[6] = test system: Staphylococcus epidermidis
Streptococcus uberis = test system: Streptococcus uberis
Bacillus subtilis 168 = test system: Bacillus subtilis 168
Escherichia coli K-12 = test system: Escherichia coli K-12
[7] = test system: Pseudomonas aeruginosa PAO1
[8] = test system: Staphylococcus aureus USA 300
Bacillus subtilis = test system: Bacillus subtilis
[9] = test system: Enterococcus faecalis ATCC 29212
[10] = test system: Klebsiella pneumoniae ATCC 13883
[11] = test system: Pseudomonas aeruginosa ATCC 27853
[12] = test system: Salmonella enterica subsp. enterica serovar Typhimurium ATCC 14028
[13] = test system: Streptococcus pyogenes ATCC 19615
[14] = test system: Bacillus subtilis ATCC 6633
[15] = test system: Klebsiella pneumoniae ATCC 10031
[16] = test system: Micrococcus luteus ATCC 10240
[17] = test system: Shigella dysenteriae ATCC 9752
[18] = test system: Staphylococcus aureus ATCC 6538P
[19] = test system: Staphylococcus aureus TK784
[20] = test system: Staphylococcus epidermidis ATCC 12228

Row | Structure (SMILES) | MIC [2] | MIC [3] | MIC [4] | MIC (Escherichia coli) | MIC [11] | MIC [12] | MIC [14] | MIC [15] | MIC [16] | MIC [17] | MIC [18] | MIC [19] | MIC [20] | further results
1 | CC[C@H](C)[C@H](NC(=O)[C@@H](NC(=O)[C@@H]1CCCN1C(=O)[C@H](CC(C)C)NC(=O)[C@@H](N)Cc1ccccc1)[C@@H](C)CC)C(=O)N[C@@H](C)C(=O)N[C@@H](CO)C(=O)N[C@@H](CC(C)C)C(=O)N[C@@H](CC(C)C)C(=O)N[C@@H](CO)C(=O)N[C@@H](CCCCN)C(=O)N[C@@H](CC(C)C)C(=O)N[C@@H](CC(C)C)C(N)=O [FLPIIASLLSKLL] |  | ≥ 32.2 µM |  |  |  |  |  |  |  |  |  |  |  | 
2 | CC[C@H](C)[C@H](NC(=O)CN)C(=O)N[C@@H](CC(C)C)C(=O)N[C@@H](CO)C(=O)N[C@H](C(=O)N[C@@H](Cc1ccccc1)C(=O)N[C@@H](CCCCN)C(=O)NCC(=O)N[C@@H](CC(C)C)C(=O)N[C@@H](C)C(=O)N[C@@H](CCCCN)C(=O)NCC(=O)N[C@H](C(=O)N[C@@H](C)C(=O)N[C@@H](CCCCN)C(=O)N[C@@H](CC(=O)O)C(=O)N[C@@H](CC(C)C)C(=O)N[C@@H](C)C(=O)NCC(=O)N[C@@H](CC(N)=O)C(=O)N[C@@H](CC(C)C)C(=O)N[C@@H](CC(C)C)C(=O)N[C@@H](CC(=O)O)C(=O)N[C@@H](CCCCN)C(=O)N[C@@H](Cc1ccccc1)C(=O)N[C@@H](CCCCN)C(=O)N[C@H]1CSSC[C@@H](C(=O)O)NC(=O)CNC(=O)[C@H]([C@@H](C)O)NC(=O)[C@H]([C@@H](C)CC)NC(=O)[C@H](CCCCN)NC1=O)C(C)C)[C@@H](C)O [GILSTFKGLAKGVAKDLAGNLLDKFKCKITGC] |  | 25 µM (≈ 82.7 µg/mL) | 7 µM (≈ 23.2 µg/mL) |  |  |  |  |  |  |  |  |  |  | MIC [5]: 27 µM (≈ 89.3 µg/mL)
3 | CC[C@H](C)[C@H](NC(=O)[C@@H](NC(=O)[C@H](C)NC(=O)[C@H](C)NC(=O)[C@@H](NC(=O)[C@H](CCCCN)NC(=O)[C@H](CCCCN)NC(=O)[C@@H](NC(=O)[C@@H](NC(=O)[C@H](C)NC(=O)[C@H](Cc1ccccc1)NC(=O)[C@H](CC(C)C)NC(=O)CN)C(C)C)[C@@H](C)CC)C(C)C)C(C)C)C(=O)N[C@@H](CCCCN)C(=O)N[C@@H](CCCCN)C(=O)N[C@@H](CC(C)C)C(N)=O [GLFAVIKKVAAVIKKL] |  | ≥ 141 µM |  | 58.9 µM (≈ 99.9 µg/mL) |  |  |  |  |  |  |  |  |  | MIC (Bacillus cereus): ≥ 58.9 µM; MIC (Leuconostoc lactis): 0.883 µM (≈ 1.5 µg/mL); MIC (Listeria innocua): 7.07 µM (≈ 12 µg/mL); MIC (Micrococcus luteus): 14.7 µM (≈ 25 µg/mL); MIC (Pasteurella multocida): ≥ 58.9 µM; MIC (Staphylococcus aureus): 14.7 µM (≈ 25 µg/mL); MIC [6]: 1.77 µM (≈ 3 µg/mL); MIC (Streptococcus uberis): 7.07 µM (≈ 12 µg/mL)
4 | CC(C)[C@H](NC(=O)[C@@H](NC(=O)[C@H](CCCCN)NC(=O)CNC(=O)[C@@H](NC(=O)[C@@H](NC(=O)[C@H](CO)NC(=O)[C@@H](NC(=O)[C@@H](NC(=O)[C@@H]1CCCN1C(=O)[C@@H](NC(=O)[C@@H](NC(=O)CN)C(C)C)C(C)C)C(C)C)C(C)C)C(C)C)C(C)C)C(C)C)C(N)=O [GVVPVVSVVGKVV] |  |  |  |  |  |  |  |  |  |  |  |  |  | MIC (Bacillus subtilis 168): ≥ 100 µM; MIC (Escherichia coli K-12): ≥ 100 µM; MIC [7]: > 100 µM; MIC [8]: ≥ 100 µM
5 | CC(C)C[C@H](NC(=O)[C@H](CC(C)C)NC(=O)[C@H](CCCCN)NC(=O)[C@H](CC(C)C)NC(=O)[C@H](CCCCN)NC(=O)[C@H](CC(C)C)NC(=O)[C@H](CCCCN)NC(=O)[C@H](CC(C)C)NC(=O)[C@H](CC(C)C)NC(=O)[C@H](CC(C)C)NC(=O)[C@@H](N)CCCCN)C(=O)N[C@@H](CCCCN)C(N)=O [KLLLKLKLKLLK] | 50 µM (≈ 72.5 µg/mL) |  |  | 50 µM (≈ 72.5 µg/mL) | 100 µM (≈ 145 µg/mL) | > 200 µM |  |  |  |  |  |  |  | MIC (Bacillus subtilis): ≥ 50 µM; MIC [9]: 100 µM (≈ 145 µg/mL); MIC [10]: ≥ 200 µM; MIC [13]: ≥ 50 µM
6 | CC(C)C[C@H](NC(=O)[C@H](CCCCN)NC(=O)[C@H](CCCCN)NC(=O)[C@H](CC(C)C)NC(=O)[C@H](Cc1c[nH]c2ccccc12)NC(=O)[C@H](CCCCN)NC(=O)[C@H](CC(C)C)NC(=O)[C@H](CC(C)C)NC(=O)[C@H](CCCCN)NC(=O)[C@H](CCCCN)NC(=O)[C@@H](N)CC(C)C)C(N)=O [LKKLLKWLKKL] |  |  | 1.42 µM (≈ 2 µg/mL) |  | 5.67 µM (≈ 7.99 µg/mL) | 2.84 µM (≈ 4 µg/mL) | 1.42 µM (≈ 2 µg/mL) | 1.42 µM (≈ 2 µg/mL) | 2.84 µM (≈ 4 µg/mL) | 1.42 µM (≈ 2 µg/mL) | 1.42 µM (≈ 2 µg/mL) | 11.3 µM (≈ 16 µg/mL) | 1.42 µM (≈ 2 µg/mL) | 
7 | CC(C)C[C@H](NC(=O)[C@H](CO)NC(=O)[C@H](CCCN=C(N)N)NC(=O)[C@H](CCCCN)NC(=O)[C@@H](NC(=O)[C@@H](NC(=O)CNC(=O)[C@H](CCCN=C(N)N)NC(=O)[C@H](Cc1cnc[nH]1)NC(=O)[C@H](Cc1c[nH]c2ccccc12)NC(=O)[C@H](Cc1ccccc1)NC(=O)[C@H](Cc1cnc[nH]1)NC(=O)[C@H](Cc1ccc(O)cc1)NC(=O)[C@@H](N)Cc1ccc(O)cc1)C(C)C)[C@@H](C)O)C(=O)N[C@@H](CO)C(=O)N1CCC[C@H]1C(=O)N[C@@H](Cc1cnc[nH]1)C(=O)O [YYHFWHRGVTKRSLSPH] | > 100 µM |  |  | 30 µM (≈ 65.1 µg/mL) | > 100 µM | > 100 µM |  |  |  |  |  |  |  | MIC (Bacillus subtilis): ≥ 100 µM; MIC [9]: > 100 µM; MIC [10]: ≥ 100 µM; MIC [13]: ≥ 100 µM

The next lines start with results.

Row | MIC [2] | MIC [3] | MIC [4] | MIC (Escherichia coli) | MIC [11] | MIC [12] | MIC [14] | MIC [15] | MIC [16] | MIC [17] | MIC [18] | MIC [19] | MIC [20] | Structure (SMILES) | further results
8 | 11.7 µM (≈ 24.9 µg/mL) |  |  |  |  |  |  |  |  |  |  |  |  | CC[C@H](C)[C@@H]1NC(=O)[C@H](CO)NC(=O)[C@H](CCCCN)NC(=O)[C@H]([C@@H](C)O)NC(=O)[C@H](Cc2c[nH]c3ccccc23)NC(=O)[C@@H](NC(=O)CNC(=O)[C@H](CCCCN)NC(=O)[C@H](CC(C)C)NC(=O)[C@H](C)NC(=O)[C@H](C)N)CSSC[C@@H](C(=O)N[C@@H](CO)C(=O)NCC(=O)N[C@@H](CCCCN)C(=O)N[C@@H](CCCN=C(N)N)C(=O)O)NC(=O)[C@@H]2CCCN2C(=O)[C@H](CCCCN)NC(=O)[C@@H]2CCCN2C(=O)[C@@H]2CCCN2C1=O [AALKGCWTKSIPPKPCSGKR] | MIC [1]: 23.4 µM (≈ 49.8 µg/mL)
9 |  |  | 32.2 µM (≈ 40 µg/mL) |  | 32.2 µM (≈ 40 µg/mL) | > 64.4 µM | ≥ 32.2 µM | ≥ 64.4 µM | ≥ 64.4 µM | ≥ 64.4 µM | 8.05 µM (≈ 9.99 µg/mL) | ≥ 64.4 µM | 32.2 µM (≈ 40 µg/mL) | CC(C)C[C@H](NC(=O)[C@H](Cc1c[nH]c2ccccc12)NC(=O)[C@H](CCCCN)NC(=O)[C@H](CCCCN)NC(=O)[C@H](CC(C)C)NC(=O)[C@H](Cc1c[nH]c2ccccc12)NC(=O)[C@H](CCCCN)NC(=O)[C@@H](N)CC(C)C)C(=O)N[C@@H](CCCCN)C(N)=O [LKWLKKWLK] | 
10 |  |  | 2.84 µM (≈ 4 µg/mL) |  | 5.67 µM (≈ 7.99 µg/mL) | 1.42 µM (≈ 2 µg/mL) | 1.42 µM (≈ 2 µg/mL) | 1.42 µM (≈ 2 µg/mL) | 2.84 µM (≈ 4 µg/mL) | 1.42 µM (≈ 2 µg/mL) | 1.42 µM (≈ 2 µg/mL) | 5.67 µM (≈ 7.99 µg/mL) | 1.42 µM (≈ 2 µg/mL) | CC(C)C[C@H](NC(=O)[C@H](CC(C)C)NC(=O)[C@H](CCCCN)NC(=O)[C@H](CCCCN)NC(=O)[C@H](CC(C)C)NC(=O)[C@H](CC(C)C)NC(=O)[C@H](CCCCN)NC(=O)[C@H](CCCCN)NC(=O)[C@H](CC(C)C)NC(=O)[C@@H](N)Cc1c[nH]c2ccccc12)C(=O)N[C@@H](CCCCN)C(N)=O [WLKKLLKKLLK] | 
